Peptide text beside a SMILES is read from it.
Test system: HeLaS3 cells
Assay: Radiosensitizing activity: cell survival rate (Cell Counting Kit-8, WST-8) of HeLaS3 cells after peptide and X-ray irradiation
Assay type: cell-based, human
Conditions: peptide 50 μM, X-ray dose 0 Gy, compared with 0 μM peptide
Description: Radiosensitizing activity of the radiosensitizing synthetic peptide (Sample 1) obtained in Example 1 was evaluated by measuring cell survival rates during culturing after having irradiated test cells supplied with the radiosensitizing synthetic peptide with radiation (here, X-rays).
Human carcinoma-derived cells (HeLaS3 cells) and cells derived from normal human tissue (CCD-1079Sk cells) were used for the test cells. […] Details of the evaluation test are as indicated below.
First, a cultured cell line derived from human cervical cancer in the form of HeLaS3 cells (ATCC™ CCL2.2) were prepared for use as test cells derived from a human tumor. […]
Next, at the point 48 hours had elapsed following X-ray irradiation, the viability of the test cells (the number of viable cells) was measured using a commercially available chromogenic assay kit (Cell Counting Kit-8, Dojindo Molecular Technologies, Inc.). Namely, the number of viable cells was measured by colorimetry by quantifying the amount of water-soluble formazan in the medium by measuring using absorption spectrophotometry (measuring wavelength: 450 nm, reference wavelength: 650 nm) based on the principle that the tetrazolium salt in the reagent is reduced by enzyme activity of viable cells resulting in the formation of water-soluble formazan. […]

In the case of `N=C(N)NCCC[C@H](NC(=O)[C@H](CCCNC(=N)N)NC(=O)[C@H](CO)NC(=O)[C@H](CCCCN)NC(=O)[C@H](CO)NC(=O)[C@H](CCCCN)NC(=O)[C@@H](N)CS)C(=O)N[C@@H](CO)C(=O)N[C@@H](CS)C(=O)O` [Sample 1, CKSKSRRSC] (H-CKSKSRRSC-OH), the “cell survivability, Test Group 1 in comparison with Test Group 2 (cytotoxicity attributable to the peptide)” value is reported as “slightly lower”.
